Assay results taken from ChEMBL document CHEMBL1201862, “PubChem BioAssay data set” (2004).
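All cell lines were grown in 96-well plates and treated with compound for 48 hours. GI50: concentration for 50% inhibition of growth.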 The source made the active and inactive calls. No stated cut-off is given here; in the data, active = GI50 up to about 1.1 µM and inactive = higher.

Key:
Test in all cases: DTP human tumour cell line panel, 48 h
A549 = system: A549
ACHN = system: ACHN
COLO 205 = system: COLO 205
EKVX = system: EKVX
HOP-62 = system: HOP-62
HT-29 = system: HT-29
IGROV-1 = system: IGROV-1
M14 = system: M14
MCF7 = system: MCF7
MDA-MB-435 = system: MDA-MB-435
Malme-3M = system: Malme-3M
NCI-H522 = system: NCI-H522
OVCAR-4 = system: OVCAR-4
OVCAR-8 = system: OVCAR-8
SF-295 = system: SF-295
SF-539 = system: SF-539
SNB-75 = system: SNB-75
SR = system: SR
T47D = system: T47D
UACC-62 = system: UACC-62

Structure (SMILES) | GI50 (A549) | GI50 (ACHN) | GI50 (COLO 205) | GI50 (EKVX) | GI50 (HOP-62) | GI50 (HT-29) | GI50 (IGROV-1) | GI50 (M14) | GI50 (MCF7) | GI50 (MDA-MB-435) | GI50 (Malme-3M) | GI50 (NCI-H522) | GI50 (OVCAR-4) | GI50 (OVCAR-8) | GI50 (SF-295) | GI50 (SF-539) | GI50 (SNB-75) | GI50 (SR) | GI50 (T47D) | GI50 (UACC-62)
O=P(O)(O)CN1CCNCCN(CP(=O)(O)O)CC1 | 15.2 µM (inactive) | > 100 µM (inactive) | 3.18 µM (inactive) | > 80.2 µM (inactive) | > 100 µM (inactive) | 4.26 µM (inactive) | 33.3 µM (inactive) | 37.9 µM (inactive) | 8.79 µM (inactive) | 36.5 µM (inactive) | > 37.3 µM (inactive) | 19.9 µM (inactive) | > 100 µM (inactive) | 28.4 µM (inactive) | 41.5 µM (inactive) | > 22.1 µM (inactive) | > 54.5 µM (inactive) | 9.44 µM (inactive) | > 68.4 µM (inactive) | 38.8 µM (inactive)
CC1OC(OC2C(OC(=O)[C@]34CCC(C)(C)C[C@H]3C3=CC[C@@H]5[C@@]6(C)CC[C@H](OC7OC(C(=O)O)C(O)C(O)C7O)C(C)(C)[C@@H]6CC[C@@]5(C)[C@]3(C)C[C@H]4O)OCC(O)C2O)C(O)C(OC2OCC(O)(CO)C2O)C1OC1OCC(O)C(O)C1O (stereo not given in full) | 3.9 µM (inactive) | 5.15 µM (inactive) | 1.81 µM (inactive) | 4.3 µM (inactive) | 16.1 µM (inactive) | 3.53 µM (inactive) | 16 µM (inactive) | 10.8 µM (inactive) | 6.17 µM (inactive) | 6.59 µM (inactive) | 11.6 µM (inactive) | 4.08 µM (inactive) | 10.5 µM (inactive) | 17.1 µM (inactive) | 11.9 µM (inactive) | – | 17.7 µM (inactive) | 3.94 µM (inactive) | 8.47 µM (inactive) | 16 µM (inactive)
O=C(Nc1ccc2nc(-c3ccccc3)cn2c1)Oc1ccccc1 | 55.5 µM (inactive) | > 100 µM (inactive) | 48.6 µM (inactive) | 80 µM (inactive) | > 100 µM (inactive) | 43.1 µM (inactive) | 57.3 µM (inactive) | 39.2 µM (inactive) | 35.4 µM (inactive) | 13.9 µM (inactive) | 98.2 µM (inactive) | 20.2 µM (inactive) | 78.3 µM (inactive) | 59.7 µM (inactive) | 57.9 µM (inactive) | – | 2.99 µM (inactive) | 19 µM (inactive) | 19.1 µM (inactive) | 37.9 µM (inactive)
CC(C)C(=O)C(C)(C)CCc1ccccn1 | > 100 µM (inactive) | > 100 µM (inactive) | > 100 µM (inactive) | > 100 µM (inactive) | > 100 µM (inactive) | > 100 µM (inactive) | > 100 µM (inactive) | > 100 µM (inactive) | > 100 µM (inactive) | > 100 µM (inactive) | > 100 µM (inactive) | > 100 µM (inactive) | > 100 µM (inactive) | > 100 µM (inactive) | > 100 µM (inactive) | – | > 100 µM (inactive) | > 100 µM (inactive) | > 100 µM (inactive) | > 100 µM (inactive)
O=C1/C(=C\c2ccc([N+](=O)[O-])cc2)N(S(=O)(=O)c2ccccc2)c2ncccc21 | 40.2 µM (inactive) | 15.9 µM (inactive) | 19.5 µM (inactive) | > 10 µM (inactive) | 18.7 µM (inactive) | 16.6 µM (inactive) | 18.3 µM (inactive) | 17.4 µM (inactive) | 24.7 µM (inactive) | 21.4 µM (inactive) | 18.2 µM (inactive) | 18.3 µM (inactive) | – | 20.9 µM (inactive) | 28.2 µM (inactive) | 24.8 µM (inactive) | 14.5 µM (inactive) | 3.33 µM (inactive) | 13.4 µM (inactive) | 9.23 µM (inactive)
COc1cc(OC)cc(C(=O)NC2=C(Cl)C(=O)c3ccccc3C2=O)c1 | 4.34 µM (inactive) | 0.78 µM (active) | 2.52 µM (inactive) | 9.75 µM (inactive) | 12.8 µM (inactive) | 4.67 µM (inactive) | 2.18 µM (inactive) | 1.07 µM (active) | 2.84 µM (inactive) | 1.95 µM (inactive) | 1.74 µM (inactive) | 0.728 µM (active) | 1.79 µM (inactive) | 3.1 µM (inactive) | 2.92 µM (inactive) | 4.45 µM (inactive) | 2.67 µM (inactive) | 1.06 µM (active) | 1.46 µM (inactive) | 0.361 µM (active)
CCN(CC)CCNc1ccc2ncn3c4c(OC)cccc4c(=O)c1c23 | 4.12 µM (inactive) | 3.38 µM (inactive) | 1.91 µM (inactive) | 4.15 µM (inactive) | 6.67 µM (inactive) | 4.04 µM (inactive) | 5.41 µM (inactive) | 6.34 µM (inactive) | 2.47 µM (inactive) | 6.58 µM (inactive) | 6.76 µM (inactive) | 4.4 µM (inactive) | 2.93 µM (inactive) | 6.38 µM (inactive) | 10.4 µM (inactive) | 3.78 µM (inactive) | 11.3 µM (inactive) | 3.4 µM (inactive) | 7.66 µM (inactive) | 6.68 µM (inactive)
c1cc(-c2cnc(-c3ccc4c(c3)CCCO4)o2)ccn1 | 16.2 µM (inactive) | 14 µM (inactive) | 18.5 µM (inactive) | 17.7 µM (inactive) | 16.5 µM (inactive) | 16.8 µM (inactive) | 17.9 µM (inactive) | 18.6 µM (inactive) | 14.7 µM (inactive) | 15.1 µM (inactive) | 16.7 µM (inactive) | 10 µM (inactive) | 14.1 µM (inactive) | 13.8 µM (inactive) | 20 µM (inactive) | 9.1 µM (inactive) | 12.2 µM (inactive) | 0.524 µM (active) | 16.6 µM (inactive) | 17.1 µM (inactive)
C[C@@H]1CC[C@]2(C(=O)O)CC[C@]3(C)C(=CC[C@@H]4[C@@]5(C)CC[C@H](O)C(C)(C)[C@@H]5CC[C@]43C)[C@@H]2[C@]1(C)O [POMOLIC ACID] | 17.2 µM (inactive) | 16.5 µM (inactive) | 16.4 µM (inactive) | 18.3 µM (inactive) | – | – | 16.5 µM (inactive) | 2.98 µM (inactive) | 20 µM (inactive) | 15.5 µM (inactive) | 12.3 µM (inactive) | 13.9 µM (inactive) | 16.8 µM (inactive) | 20.2 µM (inactive) | 3.22 µM (inactive) | 3.25 µM (inactive) | 13.5 µM (inactive) | 13.9 µM (inactive) | 16.4 µM (inactive) | 3.49 µM (inactive)
CN1CCN(CCn2c3c4ccccc4ccc3c3oc(=O)c4ccccc4c32)CC1 | 3.97 µM (inactive) | 3.05 µM (inactive) | 1.8 µM (inactive) | 12.7 µM (inactive) | 2.07 µM (inactive) | 1.36 µM (inactive) | 13.2 µM (inactive) | 1.68 µM (inactive) | 1.55 µM (inactive) | 1.88 µM (inactive) | 15.1 µM (inactive) | 4.55 µM (inactive) | 2.26 µM (inactive) | 1.52 µM (inactive) | 4.21 µM (inactive) | 1.65 µM (inactive) | 4.37 µM (inactive) | 1.5 µM (inactive) | > 10 µM (inactive) | 3.56 µM (inactive)
COc1cc2c(/C=C3/C(=O)Nc4ccc(Cl)cc43)c(Cl)n(Cc3ccccc3)c2cc1C | 3.27 µM (inactive) | 2.41 µM (inactive) | 2.41 µM (inactive) | – | 2.11 µM (inactive) | 8.26 µM (inactive) | 3.29 µM (inactive) | 4.19 µM (inactive) | 5 µM (inactive) | 2.43 µM (inactive) | 2.22 µM (inactive) | 3.18 µM (inactive) | 1.95 µM (inactive) | 2.59 µM (inactive) | 2.81 µM (inactive) | 2.94 µM (inactive) | 2.04 µM (inactive) | 2.72 µM (inactive) | 3.17 µM (inactive) | 3.08 µM (inactive)
COC(=O)c1ccc(/C=C2\Oc3ccccc3C2=O)cc1 | > 100 µM (inactive) | > 100 µM (inactive) | > 100 µM (inactive) | > 100 µM (inactive) | > 100 µM (inactive) | > 100 µM (inactive) | > 100 µM (inactive) | > 100 µM (inactive) | > 100 µM (inactive) | > 100 µM (inactive) | – | 32.1 µM (inactive) | > 100 µM (inactive) | > 100 µM (inactive) | > 100 µM (inactive) | > 100 µM (inactive) | > 100 µM (inactive) | > 100 µM (inactive) | > 100 µM (inactive) | > 100 µM (inactive)
c1ccc2c(c1)nc1n2C2CCC(C2)N1 (stereo not given) | > 10 µM (inactive) | – | > 10 µM (inactive) | > 10 µM (inactive) | > 10 µM (inactive) | > 10 µM (inactive) | > 10 µM (inactive) | > 10 µM (inactive) | > 10 µM (inactive) | > 10 µM (inactive) | > 10 µM (inactive) | > 10 µM (inactive) | > 10 µM (inactive) | > 10 µM (inactive) | > 10 µM (inactive) | > 10 µM (inactive) | 1.87 µM (inactive) | > 10 µM (inactive) | > 10 µM (inactive) | > 10 µM (inactive)
CCCCCCCCCCCCc1ccsc1-c1ccc(-c2ccc(-c3sc(-c4cc(CCCCCCCCCCCC)c(-c5ccc(-c6ccc(-c7sccc7CCCCCCCCCCCC)s6)s5)s4)cc3CCCCCCCCCCCC)s2)s1 | > 100 µM (inactive) | > 100 µM (inactive) | > 100 µM (inactive) | > 100 µM (inactive) | > 100 µM (inactive) | > 100 µM (inactive) | > 100 µM (inactive) | > 100 µM (inactive) | > 100 µM (inactive) | > 100 µM (inactive) | – | > 100 µM (inactive) | > 100 µM (inactive) | > 100 µM (inactive) | > 100 µM (inactive) | > 100 µM (inactive) | > 100 µM (inactive) | 22.8 µM (inactive) | > 100 µM (inactive) | > 100 µM (inactive)
